Assay results reported in patent US11279715B2, “Process for removing radioactive isotopes from aqueous fluids by fluorine containing reagents, fluorine containing, water-insoluble salts of the radioactive isotopes, and their use as therapeutic agents” (priority 2016, dated 2022).
Read-outs that look alike come from different tables or passages of the source.

Legend:
[1] = Solubility of the salts in water and organic solvents; format: physicochemical
[2] = in vivo; cited from earlier work
[3] = PB therapy, cited from earlier work
[4] = Specificity of the anion for Cs^+ in aqueous solution; settings: versus other cations
Description: For [H2NB2(C6F5)6]^− and [(H3O2)B2(C6F5)6]^− the process appears 100% specific for cesium so that cesium is quantitatively and exclusively separated from all other cations in the aqueous solution. Thus, a single and fully selective separation step is necessary only to separate cesium from the other components in the form of the intermediate Cs[L]. In a second step, intermediate Cs[L] is converted into the desired product CsA, allowing recycling of [L].
The interest of the inventors in weakly coordinating anions (WCAs) has led them to synthesize the new cesium salt, Cs[H2NB2(C6F5)6] (2). The inventors realized that (2) is insoluble in water and that it is instantaneously formed by mixing any aqueous solution containing Cs^+ with virtually any source of the [H2NB2(C6F5)]^− anion. The reaction is 100% specific for Cs^+, since only in this case [H2NB2(C6F5)6]^− changes its usual asymmetric conformation to an “inverse C2 symmetric” conformation to form a specific 3D lattice.

[5] = Isolation of Cs[H2NB2(C6F5)6] (2) from neat water containing CsCl
Procedure: [Na(OEt2)3][H2NB2(C6F5)6] (69.6 mg, 0.0541 mmol; FW=1285.4; c≈0.9·10^−4 M) was dissolved in 570 mL of water. CsCl (9.5 mg, 0.0564 mmol; FW=168.4) was added and after brief mixing the clear solution was left unstirred. Soon colorless crystals began to separate. The mixture was left overnight and the precipitate was isolated by filtration; yield of 2 42.1 mg (0.0359 mmol, 66%; FW=1172.9). The aqueous mother liquor was extracted once with 20 mL of CH2Cl2. Evaporation of the solvent gave an additional crop of 20 mg (0.0170 mmol, 32%). Total isolated yield was 62.1 mg (0.053 mmol; 98%). The IR spectra of the isolated solids were identical with that of pure Cs[H2NB2(C6F5)6] (2).

[6] = Isolation of 2 from water containing other metal salts; settings: 450 mL water with CsCl 5·10^−5 mol/L plus KCl, PbCl2, CrCl3, CaCl2, FeCl3; reagent c≈4.75·10^−5 M
Procedure: To a water solution (450 mL), containing the inorganic salts listed below, was added [Na(OEt2)3][H2NB2(C6F5)6] (27.5 mg, 0.0214 mmol; FW=1285.4; c≈4.75·10^−5 M) and the suspension was stirred overnight. A brown precipitate resulted (color presumably arising from Fe(OH)3) which was filtered off and was washed with dichloromethane to extract 2. The solvent of the extract was evaporated to dryness to leave a colorless residue: yield 19.2 mg of 2 (0.0163 mmol, 76%; FW=1172.9), identified by comparison of the IR spectrum with that of pure 2.
List of Added Inorganic Salts

In the case of Fc1c(F)c(F)c([B-]([NH2+][B-](c2c(F)c(F)c(F)c(F)c2F)(c2c(F)c(F)c(F)c(F)c2F)c2c(F)c(F)c(F)c(F)c2F)(c2c(F)c(F)c(F)c(F)c2F)c2c(F)c(F)c(F)c(F)c2F)c(F)c1F.[Cs+] [Compound 2, Cs[H2NB2(C6F5)6]], the “solubility in CH2Cl2, THF, chloroform, Et2O and toluene” value ([1]; CH2Cl2, THF and solvents of low dielectric constant) is reported as “dissolves well”, the “solubility in MeOH” value ([1]; MeOH) is reported as “only limited soluble” and the solubility in alkanes ([1]; alkanes) is reported as “virtually insoluble”. For the same molecule, the solubility in water [1] was “virtually insoluble” and the solubility in water ([1]; listed as Cs[H2NB2(C6F5)6]) was “insoluble”.
For Fc1c(F)c(F)c([B-](c2c(F)c(F)c(F)c(F)c2F)(c2c(F)c(F)c(F)c(F)c2F)c2c(F)c(F)c(F)c(F)c2F)c(F)c1F.[Cs+] [Compound 7, Cs[B(C6F5)4]], the solubility in water [1] was “insoluble”.
In the case of Fc1c(F)c(F)c([B-](c2c(F)c(F)c(F)c(F)c2F)(c2c(F)c(F)c(F)c(F)c2F)c2c(F)c(F)c(F)c(F)c2F)c(F)c1F.[Rb+] [Compound 8, Rb[B(C6F5)4]], the solubility in water [1] is reported as “water insoluble”.
For Fc1c(F)c(F)c([B-](c2c(F)c(F)c(F)c(F)c2F)(c2c(F)c(F)c(F)c(F)c2F)c2c(F)c(F)c(F)c(F)c2F)c(F)c1F.[Tl+] [Compound 9, Tl[B(C6F5)4], reference compound], the solubility in water [1] was “water insoluble”.
For [C-]#N.[C-]#N.[C-]#N.[C-]#N.[C-]#N.[C-]#N.[C-]#N.[C-]#N.[C-]#N.[C-]#N.[C-]#N.[C-]#N.[C-]#N.[C-]#N.[C-]#N.[C-]#N.[C-]#N.[C-]#N.[Fe+2].[Fe+2].[Fe+2].[Fe+3].[Fe+3].[Fe+3].[Fe+3] [Prussian blue, ferric hexacyanoferrate], the “absorption by the body via the bowels” value [2] is listed as “not absorbed by the body via the bowels to a noticeable extent”, the “biological half-life of retention of cesium” value (“biological half-life” below) ([3]; adolescents) is listed as about 30 days and the “biological half-life” value ([3]; adults) is listed as “approximately 26 days”. The “biological half-life” value ([3]; children) was about 24 days.
In the case of Fc1c(F)c(F)c([B-]([NH2+][B-](c2c(F)c(F)c(F)c(F)c2F)(c2c(F)c(F)c(F)c(F)c2F)c2c(F)c(F)c(F)c(F)c2F)(c2c(F)c(F)c(F)c(F)c2F)c2c(F)c(F)c(F)c(F)c2F)c(F)c1F [[H2NB2(C6F5)6]^−], the specificity for cesium [4] is reported as 100%.
In the case of CCOCC.CCOCC.CCOCC.Fc1c(F)c(F)c([B-]([NH2+][B-](c2c(F)c(F)c(F)c(F)c2F)(c2c(F)c(F)c(F)c(F)c2F)c2c(F)c(F)c(F)c(F)c2F)(c2c(F)c(F)c(F)c(F)c2F)c2c(F)c(F)c(F)c(F)c2F)c(F)c1F.[Na+] [[Na(OEt2)3][H2NB2(C6F5)6]], the “yield of 2 precipitated from water” value ([5]; neat water 570 mL, reagent c≈0.9·10^−4 M, overnight, filtration) is reported as 66%, the “total isolated yield of 2” value ([5]; neat water, precipitate plus one CH2Cl2 extraction of the mother liquor) is reported as 98% and the “yield of 2 isolated from water containing other metal salts” value [6] is reported as 76%.
For “Cs[(C6F5)3B(OH2)—(HO)B(C6F5)3] [Compound 5]”, the solubility in water [1] was “water insoluble” and the solubility in water ([1]; listed as Cs[H(OH)2B2(C6F5)6]) was “insoluble”.
[(H3O2)B2(C6F5)6]^− gave a specificity for cesium [4] of 100%.
